# Assay results from US20070031534A1, “Pet food for reducing food allergy reactions” (priority 2004, published 2007).
# Tested on: dogs subject to food allergies
# Experiment: Owner-marked itching scores of dogs subject to food allergies fed with the dog food
# Format: in vivo
# Details: case No.1, before feeding with the dog food
# Experimental: A dog food (dog food for food allergy) composed of raw materials as listed in Table 3 and Table 4 below was prepared according to the above Example 1. Dogs subject to food allergies were fed with this dog food and then the itching scores of these dogs were determined.
# The following 2 cases are described in detail. (a) Detailed description of case No.1 (i) Changes (−1) in itching scores
smiles,measurement,value
C[C@]12C=CC(=O)C=C1CC[C@@H]1[C@@H]2[C@@H](O)C[C@@]2(C)[C@H]1CC[C@]2(O)C(=O)CO [predonine],itching on administration of steroid drug,further suppressed
